Measurements: ChEMBL document CHEMBL1125524, “Adenosine A1 antagonists. 2. Structure-activity relationships on diuretic activities and protective effects against acute renal failure” (J Med Chem, 1992)

Tests used:
[1] = system: Rattus norvegicus; experiment: Oral diuretic activity was measured after oral administration of 25 mg/kg to rats(control volume is 0.69+/-0.03); type: functional, Urine
[2] = system: Rattus norvegicus; experiment: Urea nitrogen concentration measured after intraperitoneal administration of 1 mg/kg of compound to rats(vehicle 154.5+/-7); type: functional
[3] = system: Rattus norvegicus; experiment: Serum creatinine concentration measured after intraperitoneal administration of 10 mg/kg of compound to rats(vehicle 4.26+/-0.39); type: functional
[4] = system: Rattus norvegicus; experiment: Oral diuretic activity was measured after oral administration of 1.6 mg/kg to rats(control volume is 1.12+/-0.33); type: functional, Urine
[5] = system: Rattus norvegicus; experiment: Percent inhibition of serum creatinine by the compound given as ratio of Cr value in treated to vehicle treated ones after intraperitoneal administration of 1 mg/kg of compound to rats(vehicle 4.91+/-0.10); type: functional; conditions: ip
[6] = system: Rattus norvegicus; experiment: Ratio of urinary excretion value (Na+ concentration) in treated rats to that in control rats, at a peroral dose of 1.6 mg/Kg; type: functional, Urine
[7] = system: Rattus norvegicus; experiment: Percent inhibition of Urea nitrogen by the compound given as ratio of UN value in treated to vehicle treated ones after intraperitoneal administration of 10 mg/kg of compound to rats(vehicle 146.7+/-10.1); type: functional; conditions: ip
[8] = system: Rattus norvegicus; experiment: Effect on urinary excretion potassium and sodium after oral administration of 1.6 mg/kg to rats(potassium and sodium excretion in control rat is 0.158+/-0.034); type: functional, Urine
[9] = system: Rattus norvegicus; experiment: Ratio of urinary excretion value (Na+ concentration) in treated rats to that in control rats, at a peroral dose of 25 mg/Kg; type: functional, Urine
[10] = system: Rattus norvegicus; experiment: Percent inhibition of serum creatinine by the compound given as ratio of Cr value in treated to vehicle treated ones after intraperitoneal administration of 10 mg/kg of compound to rats(vehicle 4.26+/-0.39); type: functional; conditions: ip
[11] = system: Rattus norvegicus; experiment: Ratio of sodium ion/potassium ion concentration in treated rats to that in control rats, at a peroral dose of 3.1 mg/Kg; type: functional
[12] = system: Rattus norvegicus; experiment: Effect on urinary excretion potassium and sodium after oral administration of 3.1 mg/kg to rats(potassium and sodium excretion in control rat is 0.227+/-0.027); type: functional, Urine
[13] = system: Rattus norvegicus; experiment: Urea nitrogen concentration measured after intraperitoneal administration of 10 mg/kg of compound to rats(vehicle 146.7+/-10.1); type: functional
[14] = system: Rattus norvegicus; experiment: Oral diuretic activity was measured after oral administration of 3.1 mg/kg to rats(control volume is 1.18+/-0.11); type: functional, Urine
[15] = system: Rattus norvegicus; experiment: Ratio of urinary excretion value (urinary volume) in treated rats to that in control rats, at a peroral dose of 25 mg/Kg; type: functional, Urine
[16] = system: Rattus norvegicus; experiment: Ratio of urinary excretion value (urinary volume) in treated rats to that in control rats, at a peroral dose of 3.1 mg/Kg; type: functional, Urine
[17] = system: Rattus norvegicus; experiment: Ratio of sodium ion/potassium ion concentration in treated rats to that in control rats, at a peroral dose of 1.6 mg/Kg; type: functional
[18] = system: Rattus norvegicus; experiment: Percent inhibition of Urea nitrogen by the compound given as ratio of UN value in treated to vehicle treated ones after intraperitoneal administration of 1 mg/kg of compound to rats(vehicle 154.5+/-7); type: functional; conditions: ip
[19] = system: Rattus norvegicus; experiment: Effect on urinary excretion potassium and sodium after oral administration of 25 mg/kg to rats(potassium and sodium excretion in control rat is 0.079+/-0.007); type: functional, Urine
[20] = system: Rattus norvegicus; experiment: Ratio of urinary excretion value (Na+ concentration) in treated rats to that in control rats, at a peroral dose of 3.1 mg/Kg; type: functional, Urine
[21] = target: T1, Adenosine receptor A1 (Cavia porcellus, UniProt P47745)
T1 sequence (P47745 whole entry): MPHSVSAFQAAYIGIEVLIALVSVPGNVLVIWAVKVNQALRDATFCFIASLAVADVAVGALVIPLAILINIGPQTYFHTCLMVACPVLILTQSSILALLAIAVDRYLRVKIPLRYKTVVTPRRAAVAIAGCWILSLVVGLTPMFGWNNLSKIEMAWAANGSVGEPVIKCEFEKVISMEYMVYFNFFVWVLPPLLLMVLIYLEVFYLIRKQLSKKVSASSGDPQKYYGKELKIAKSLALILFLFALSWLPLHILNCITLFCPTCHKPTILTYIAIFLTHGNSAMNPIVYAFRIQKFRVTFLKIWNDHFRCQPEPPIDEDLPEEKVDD
Description: Binding affinity against adenosine A1 receptor in guinea pig forebrain membranes using N6-[3H]cyclohexyladenosine as radioligand

[22] = system: Rattus norvegicus; experiment: Serum creatinine concentration measured after intraperitoneal administration of 1 mg/kg of compound to rats(vehicle 4.91+/-0.10); type: functional
[23] = system: Rattus norvegicus; experiment: Ratio of urinary excretion value (urinary volume) in treated rats to that in control rats, at a peroral dose of 1.6 mg/Kg; type: functional, Urine
[24] = system: Rattus norvegicus; experiment: Oral diuretic activity was measured after oral administration of 25 mg/kg to rats(control volume is 1.04+/-0.11); type: functional, Urine
[25] = system: Rattus norvegicus; experiment: Urea nitrogen concentration measured after intraperitoneal administration of 10 mg/kg of compound to rats(vehicle 97.7+/-8.7); type: functional
[26] = system: Rattus norvegicus; experiment: Serum creatinine concentration measured after intraperitoneal administration of 10 mg/kg of compound to rats(vehicle 2.74+/-0.27); type: functional
[27] = system: Rattus norvegicus; experiment: Percent inhibition of serum creatinine by the compound given as ratio of Cr value in treated to vehicle treated ones after intraperitoneal administration of 10 mg/kg of compound to rats(vehicle 2.74+/-0.27); type: functional; conditions: ip
[28] = system: Rattus norvegicus; experiment: Effect on urinary excretion potassium and sodium after oral administration of 25 mg/kg to rats(potassium and sodium excretion in control rat is 0.095+/-0.009); type: functional, Urine
[29] = system: Rattus norvegicus; experiment: Percent inhibition of Urea nitrogen by the compound given as ratio of UN value in treated to vehicle treated ones after intraperitoneal administration of 10 mg/kg of compound to rats(vehicle 97.7+/-8.7); type: functional; conditions: ip
[30] = system: Rattus norvegicus; experiment: Ratio of sodium ion/potassium ion concentration in treated rats to that in control rats, at a peroral dose of 25 mg/Kg; type: functional

Q: `CCCn1c(=O)c2nc(C34CC5CC(CC(C5)C3)C4)[nH]c2n(CCC)c1=O` was tested. Which Urine volume [1] did it give?
A: 1.58 ml 6hr-1 100g-1

Q: What about the UN [2] of the same compound?
A: 118.8 mg/dL

Q: And the Cr [3]?
A: 1.91 mg/dL

Q: What about the Urine volume [4] of the same compound?
A: 1.39 ml 6hr-1 100g-1

Q: And the inhibition in vivo at 1 mg/kg [5]?
A: 30%

Q: And the T/C [6]?
A: 1.44

Q: What about the inhibition in vivo at 10 mg/kg [7] of the same compound?
A: 47%

Q: What about the Na [8] of the same compound?
A: 0.227 m equiv 6hr-1 100g-1

Q: And the T/C [9]?
A: 2.86

Q: What about the inhibition in vivo at 10 mg/kg [10] of the same compound?
A: 55%

Q: What about the “Na+/K+” value [11] of the same compound?
A: 1.23

Q: And the Na [12]?
A: 0.299 m equiv 6hr-1 100g-1

Q: What about the UN [13] of the same compound?
A: 77.5 mg/dL

Q: What about the Urine volume [14] of the same compound?
A: 1.67 ml 6hr-1 100g-1

Q: What about the T/C [15] of the same compound?
A: 2.29

Q: And the T/C [16]?
A: 1.42

Q: And the “Na+/K+” value [17]?
A: 1.22

Q: And the inhibition in vivo at 1 mg/kg [18]?
A: 25%

Q: What about the Na [19] of the same compound?
A: 0.226 m equiv 6hr-1 100g-1

Q: And the T/C [20]?
A: 1.32

Q: What about the Ki [21] of the same compound?
A: 13 nM

Q: And the Cr [22]?
A: 3.45 mg/dL

Q: And the T/C [23]?
A: 1.24

Q: Which results are given for `CCCn1c(=O)c2[nH]c(-c3ccc(OCC(=O)NCCN)cc3)nc2n(CCC)c1=O` [XANTHINE AMINE CONGENER]?
A: Urine volume [24]: 1.05 ml 6hr-1 100g-1; UN [25]: 70.1 mg/dL; Cr [26]: 2.07 mg/dL; inhibition in vivo at 10 mg/kg [27]: 24%; T/C [9]: 1.19; Na [28]: 0.113 m equiv 6hr-1 100g-1; T/C [15]: 1.05; inhibition in vivo at 10 mg/kg [29]: 28%; Na+/K+ [30]: 1.24
